Measured values published in patent US4505889A, “Protracted release microbiocidal article for aqueous systems” (Rohm and Haas Company, priority 1982, dated 1985).
In brackets after ≈: the same amount, converted by molar mass.

Columns and labels:
[1] = Water solubility of the isothiazolones; details: for solubility: water
[2] = Release of active ingredient from solid Celite 545 composition stirred in deionized water, followed by ultraviolet spectroscopy; assay type: physicochemical; details: for Concentration in Solution at Elapsed Time: 1.28 g of 7% composition on Celite 545 in 800 ml deionized water, total release = 112 ppm; for time required to reach a saturated solution: solid composition on Celite 545 in deionized water
Experimental: To 13.28 g. of Celite®545 in each of three glass bottles was added 1 g. of the following isothiazolones in 20 ml. of methanol:
Each mixture was then stirred by hand with a spatula until it appeared to be uniformly mixed and free-flowing. Air drying, to remove methanol, affords solid product, 14.28 g., containing 7 weight % of active ingredient.
1.28 g. of each of the resulting solid microbiocidal compositions was stirred in 800 ml. of deionized water. The release of active ingredient was followed by analysis of the supernatant water by ultraviolet spectroscopy. Total release of active ingredient would give 112 ppm.

[3] = Rate of release and concentration of active ingredient from sealed cellulose film bags into deionized water, followed by ultraviolet spectroscopy; assay type: physicochemical; details: 1.28 g of 7% composition on Celite 545 in sealed 3-mil cellulose bag, 800 ml deionized water, complete release = 112 ppm
Description: There was sealed in bags of 3-mil cellulose film (3.5 in.^2 surface area) 1.28 g. of each of the three compositions prepared in Example 1 containing compounds A, B, and C, respectively. For comparison, 1.28 g. of a 7% active ingredient solid composition of Kathon®886 (a 3:1 weight ratio blend of 5-chloro-2-methyl-3-isothiazolone and 2-methyl-3-isothiazolone with 15 weight % of Mg(NO3)2 and 9 weight % of MgCl2 in aqueous solution containing 14% active ingredient available from the Rohm and Haas Company) absorbed on Celite®545 was sealed in a bag of 3-mil cellulose film (3.5 in.^2 surface area). The rate of release and concentration of active ingredient from the sealed bags into 800 ml. of deionized water was followed by ultraviolet spectroscopy. Complete release of active ingredient from each sample would give 112 ppm.

[4] = physchem; details: water

Row | solubility ([1]; Water Solubility, Example 1 table) | solubility ([1]; Water Solubility, Example 3 table head) | SMILES | Concentration in Solution at Elapsed Time ([2]; 0.75 hr.) | Concentration in Solution at Elapsed Time ([2]; 3.0 hr.) | Concentration in Solution at Elapsed Time ([2]; 66.0 hr.) | time required to reach a saturated solution [2] | Concentration/Rate of Release ([3]; 1 day) | Concentration/Rate of Release ([3]; 5 days) | solubility [4] | Water Solubility ([1]; Example 3 table head) | solubility [1] | Concentration in Solution at Elapsed Time ([2]; 23.0 hr.)
1 | 40 µg/mL (≈ 159 µM) | 42 µg/mL (≈ 167 µM) | O=c1c(Cl)c(Cl)sn1C1CCCCC1 [B, 4,5-dichloro-2-cyclohexyl-3-isothiazolone] | 27 ppm | 39 ppm | 39 ppm | 1 to 3 h | 5 ppm | 11 ppm | – | – | – | –
2 | – | – | CCCCCCCCn1sccc1=O [A, 2-octyl-3-isothiazolone] | – | – | – | less than 1 hours | 27 ppm | 82 ppm | 500 µg/mL (≈ 2340 µM) | – | – | –
3 | – | – | CCCCCCCCn1sc(Cl)c(Cl)c1=O [Compound C, 4,5-dichloro-2-octyl-3-isothiazolone] | 7 ppm | 10 ppm | 14 ppm | – | 0.4 ppm | 1.7 ppm | – | 14 ppm | 14 µg/mL (≈ 49.6 µM) | 14 ppm
